What was measured:
[1] = human
[2] = human, serum
[3] = human; remark: listed apart in the source
[4] = human; remark: listed apart in the source
[5] = human, serum; remark: listed apart in the source
[6] = human, serum, 4383 h
[7] = human; remark: listed apart in the source
[8] = Highest frequency of acute liver toxicity observed during clinical trials, expressed as a percentage. [column '% AIGUE' in source]; conditions: human
[9] = human; remark: listed apart in the source
[10] = Proposed mechanism(s) of liver damage. [column 'MEC' in source]; conditions: human
[11] = Highest frequency of moderate liver toxicity observed during clinical trials, expressed as a percentage. [column '% BIOL' in source]; conditions: human
[12] = Times to onset, minimal and maximal, observed in the indexed observations. [column 'DELAI' in source]; conditions: human
[13] = human; remark: listed apart in the source
[14] = human; remark: listed apart in the source
[15] = human; remark: listed apart in the source
[16] = human; remark: listed apart in the source
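Throughout, for Hepatotoxicity (association with vascular disease): count of indexed literature references reporting vascular liver injury in humans, e.g. peliosis hepatitis, hepatic veno-occlusive disease or Budd-Chiari syndrome.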
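Throughout, for Hepatotoxicity (benign tumour): value is a count of indexed literature references citing a benign tumour confirmed by histopathology.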
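Throughout, for Hepatotoxicity (choleostasis): human cholestatic liver injury, shown by histopathology or by peak ALT or AST elevation over alkaline phosphatase ratio below 2, value counts indexed literature reports.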
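Throughout, for Hepatotoxicity (chronic liver disease): chronic liver injury confirmed by histopathology or persistently raised serum aminotransferase activity beyond 6 months, value given as the count of indexed literature references.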
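Throughout, for Hepatotoxicity (cirrhosis): value is a count of indexed literature references reporting cirrhosis confirmed by histopathology.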
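Throughout, for Hepatotoxicity (cytolytic): human cytolytic liver injury, shown by histopathology or by a ratio above 5 of peak ALT or AST elevation to alkaline phosphatase elevation, value counts indexed references.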
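Throughout, for Hepatotoxicity (granulomatous hepatitis): value is a count of indexed literature references reporting granulomatous liver disease confirmed by histopathology.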
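Throughout, for Hepatotoxicity (malignant tumour): malignant tumour confirmed by histopathology, value gives the count of indexed literature references reporting it.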
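Throughout, for Hepatotoxicity (severe hepatitis): human clinical data: severe hepatitis, meaning potentially life-threatening liver failure or clinically observed cases, the value counts how many indexed literature references report it.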
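Throughout, for Hepatotoxicity (steatosis): steatosis confirmed by histopathology, value is the count of indexed references.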

Compound | Hepatotoxicity (association with vascular disease) [1] | Hepatotoxicity (acute) [2] | Hepatotoxicity (malignant tumour) [3] | Hepatotoxicity (cirrhosis) [4] | Hepatotoxicity (moderate) [5] | Hepatotoxicity (chronic liver disease) [6] | Hepatotoxicity (severe hepatitis) [7] | Hepatotoxicity (acute) [8] | Hepatotoxicity (granulomatous hepatitis) [9] | Hepatotoxicity (mechanism) [10] | Hepatotoxicity (moderate) [11] | Hepatotoxicity (time to onset) [12] | Hepatotoxicity (cytolytic) [13] | Hepatotoxicity (benign tumour) [14] | Hepatotoxicity (steatosis) [15] | Hepatotoxicity (choleostasis) [16] | Hepatotoxicity (severe hepatitis) ([7]; Liver) | Hepatotoxicity (acute) ([8]; Liver) | Hepatotoxicity (granulomatous hepatitis) ([9]; Liver) | Hepatotoxicity (moderate) ([11]; Liver) | other results
O=C(O)C1=C(CSc2nnnn2CS(=O)(=O)O)CS[C@@H]2[C@H](NC(=O)[C@H](O)c3ccccc3)C(=O)N12 [CEFONICID] | 0 | 2 | 0 | 0 | 10 | 0 | 0 | 5.9% | 0 | Allergic | 29% | 4 days - 20 days | 0 | 0 | 0 | 0 |  |  |  |  | 
BCG VACCINE | 0 | 6 | 0 | 0 | 7 | 0 | 0 | 0.9% | 32 | Allergic | 10% | 1 hour - 2 years | 2 | 0 | 0 | 2 |  |  |  |  | 
Cc1ncc(C[n+]2csc(CCO)c2C)c(N)n1 [THIAMINE ION] | 0 | 0 | 0 | 0 | 0 | 1 |  |  |  |  |  | 2 years |  | 0 | 1 |  | 0 | 0% | 0 | 0% | Hepatotoxicity (mechanism) ([10]; Liver): Dose-dependant; Hepatotoxicity (cytolytic) ([13]; Liver): 0; Hepatotoxicity (choleostasis) ([16]; Liver): 0
Cc1ccc(S(=O)(=O)NC(=O)NN2CC3CCCC3C2)cc1 (stereo not given) [GLICLAZIDE] | 0 | 3 | 0 | 0 | 1 | 0 | 0 | 0% | 0 | Allergic | 0% | 4 weeks - 5 weeks | 2 | 0 | 0 | 1 |  |  |  |  | 
CC1=C(C(=O)O)N2C(=O)[C@@H](NC(=O)[C@H](N)c3ccc(O)cc3)[C@H]2SC1 [CEFADROXIL] | 0 | 2 | 0 | 0 | 1 | 0 |  |  | 0 | Allergic |  | 4 days - 6 days | 1 | 0 | 0 | 2 | 0 | 0% |  | 3.1% | 
Cc1cc2c(s1)Nc1ccccc1N=C2N1CCN(C)CC1 [OLANZAPINE] | 0 | 2 | 0 | 0 | 13 | 0 | 0 | 0% | 0 | Allergic, Dose-dependant | 30% | 13 days - 15 months | 2 | 0 | 1 | 1 |  |  |  |  | 
NC(=O)NC(=O)Cc1ccccc1 [PHENACEMIDE] | 0 | 13 | 0 | 0 | 1 | 0 | 8 | 3% | 0 | Allergic | 0% | 1 month - 3 months | 8 | 0 | 0 | 0 |  |  |  |  | 
NADROPARIN CALCIUM | 0 | 0 | 0 | 0 | 8 | 0 | 0 | 0% | 0 | Dose-dependant | 66.7% | 5 days - 1 week | 0 | 0 | 0 | 0 |  |  |  |  | 
O=C(O)c1ccccc1O.O=C(O)c1ccccc1O.O=C(O)c1ccccc1O | 0 | 1 | 0 | 0 | 0 | 0 |  |  |  |  |  | 3 days |  | 0 | 0 |  | 1 | 0% | 0 | 0% | Hepatotoxicity (mechanism) ([10]; Liver): Allergic; Hepatotoxicity (cytolytic) ([13]; Liver): 1; Hepatotoxicity (choleostasis) ([16]; Liver): 0
CC1(C)NC(=O)N(c2ccc([N+](=O)[O-])c(C(F)(F)F)c2)C1=O [NILUTAMIDE] | 0 | 5 | 0 | 0 | 5 | 0 |  |  |  |  |  | 1 month - 4 months |  | 0 | 0 |  | 4 | 0% | 0 | 8% | Hepatotoxicity (mechanism) ([10]; Liver): Reactive metabolite; Hepatotoxicity (cytolytic) ([13]; Liver): 4; Hepatotoxicity (choleostasis) ([16]; Liver): 0

Source: ChEMBL document CHEMBL3137667, “[Drug-induced liver injury; fourteenth updated edition of the bibliographic database of liver injuries and related drugs]” (Gastroenterol Clin Biol, 2004)
